“Also recorded” adds a separate entry of the source. Where two headings read alike, the source gives them in different places.
Columns and labels:
[1] = tested on: CREB phosphorylation in cultured striatal neurons; type: cell-based, rat
[2] = tested on: cAMP in cultured striatal neurons; assay: cAMP assay (Parameter cAMP kit) in cultured striatal neurons; type: cell-based, rat; conditions: IBMX 75 µM
[3] = tested on: total CREB in cultured striatal neurons; assay: Immunocytochemistry of total CREB; type: cell-based, rat; conditions: CRF 40 nM, 15 min, vs vehicle; P = 0.67, Student's two-tailed T-test
CRFR1 = tested on: CRFR1; design: method as in 5 sources, ref 26 = [26]; PMID 9918582; 26 Perrin MH Sutton SW Cervini LA Rivier JE Vale WW 1999 Comparison of an agonist, urocortin, and an antagonist, astressin, as radioligands for characterization of corticotropin-releasing factor recep ||| ref [73] (a number printed in a supplementary file, which may have a reference list of its own: not looked up in the article's list) ||| ref [74] (a number printed in a supplementary file, which may have a reference list of its own: not looked up in the article's list) ||| ref [75] (a number printed in a supplementary file, which may have a reference list of its own: not looked up in the article's list) ||| ref [76] (a number printed in a supplementary file, which may have a reference list of its own: not looked up in the article's list); conditions: cited from earlier work
[4] = tested on: CREB in cerebellar and hippocampal neurons; conditions: cited from earlier work
Excerpt: Separate from CREB/MAPK signaling, CRF also affects the activity of various other kinases, second messengers, ion channels and neurotransmitter receptors [45]–[51]. This diversity in cellular effects is not surprising when one considers the ability of CRF ...

[5] = tested on: rewarding effects of drugs of abuse / sucrose reward; conditions: cited from earlier work
Excerpt: Human individuals with a history of chronic stress are more likely to become addicts, and previously abstinent addicts are more likely to relapse following exposure to an acute stressor [1]–[3]. […] And while research thus far has focused on the NAc, CRF neurotransmission is also an essential component to connectivity in the dorsal striatum [19]–[22].

[6] = tested on: CRF-induced CREB phosphorylation in striatal neurons; assay: Block of CRF-induced CREB phosphorylation; type: cell-based, rat
[7] = tested on: depolarization-induced CREB phosphorylation; type: cell-based
[8] = tested on: CREB phosphorylation in cultured striatal neurons; conditions: ISO via a Gαs pathway in striatal neurons; cited from earlier work
Procedure: To test for a Gβγ-dependent mechanism in CRF-induced CREB phosphorylation, we utilized the Gβγ-specific inhibitor gallein (75 µM). […] To ensure that the effect of gallein was specific to CRF and not dampening all G-protein signaling, we stimulated our neurons with ISO (10 µM) in the presence of gallein. […] Indeed, this was in fact the ...

[9] = tested on: BDNF-induced NFAT activation; conditions: 100 nM; cited from earlier work
Excerpt: (§1) Supplement pone.0018114.s002.xlsx, sheet "Sheet1" | column: Target (notes)

Ras = conditions: cited from earlier work
Excerpt: as §1

[10] = tested on: forskolin (FSK)-induced CREB phosphorylation; assay: Block of forskolin-induced CREB phosphorylation; type: cell-based, rat; conditions: H89 2 µM; forskolin 25 µM
Procedure: (§2) Protocols followed are those described previously, using a well-characterized commercially available monoclonal antibody directed against the Ser133 phosphorylated version of CREB (see below), [66], [70]–[72]. Briefly, cultured striatal neurons (8–10 d.i.v.) were incubated in a Tyrode's solution containing TTX (1 µM) and AP-5 (25 µM) at room temperature for 1.5 hr. Unless noted otherwise, cell stimulations were performed as follows: vehicle (15 min); agonist stimulations were 15 min, antagonist exposure was 30 min prior to agonist stimulation, except PTX and CTX (18 hr pre-treatment), and concurrently with agonist stimulation. […] Data were quantified with Leica LAS AF (version 1.9.0; Leica).
(§3) The confocal excitation and detection settings for each experiment were determined using coverslips stimulated for 5 min with 60 mM potassium (60 K) to establish a “ceiling” for pCREB intensity. A baseline was determined via the vehicle (NS) group, so that each assay has an internal control. […] Neurons were readily discriminated from glia via size and morphology (see Figure 1 and Figure S1) and selected randomly using α-tubulin or MAP2 fluorescence, allowing the experimenter to remain blind to the CREB or pCREB signal. […] To analyze pCREB fluorescence intensity, the α-tubulin or MAP2 staining was used to draw a region of interested (ROI) of interest outlining the nucleus of each neuron. […]

MAPKAP = conditions: cited from earlier work
Excerpt: as §1

PKA = conditions: cited from earlier work
Excerpt: as §1

PKB = conditions: cited from earlier work
Excerpt: as §1

ROCK-II = conditions: cited from earlier work
Excerpt: as §1

[11] = tested on: ISO-induced CREB phosphorylation in striatal neurons; design: dose or concentration left out as unconfirmed; conditions: ref unpublished observations; cited from earlier work
Excerpt: as §1

[12] = tested on: ISO-induced CREB phosphorylation in striatal neurons; assay: Block of isoproterenol-induced CREB phosphorylation; type: cell-based, rat; conditions: gallein 75 µM; ISO 10 µM
Procedure: as §2, §3

Rac1 = tested on: Rac1; design: dose or concentration left out as unconfirmed; conditions: cited from earlier work
Excerpt: as §1

PI3K = conditions: cited from earlier work
Excerpt: as §1

[13] = tested on: mGluR1/5 mediated calcium transienst; conditions: 5 mM as printed; ref unpublished observations; cited from earlier work
Excerpt: as §1

Akt/PKB = conditions: cited from earlier work
Excerpt: as §1

[14] = inhibitor 2 µM, 30 min prior and concurrently, CRF 15 min
[15] = inhibitor 5 µM, 30 min prior and concurrently, CRF 15 min

In the case of corticotropin releasing factor [CRF], the “time constant τ of CRF-induced CREB phosphorylation” value ([1]; 40 nM CRF, time course) is reported as about 3.5 min, the CREB phosphorylation ([1]; CRF 40 nM, 15 min, vs vehicle (NS), p<0.0001, ~25 cells per group) is reported as “significantly increased CREB phosphorylation; also recorded: exhibited increased CREB phosphorylation” and the “share of striatal neurons with shift in pCREB fluorescence intensity” value ([1]; CRF 40 nM, 15 min, cumulative histogram) is reported as “approximately 80%”. The “effect of extended exposure on CREB phosphorylation” value ([1]; CRF 40 nM, 1 hr) was “apparent desensitization”, the “CREB phosphorylation, NAc enriched culture” value ([1]; NAc "enriched" cultures, data not shown) was “similarly robust increases in CREB phosphorylation” and the EC50 ([1]; cultured striatal neurons from 1- to 2-day old rat pups, 8-10 d.i.v., nuclear pCREB (Ser133) immunofluorescence, 15 min, nonlinear curve fit) was 0.3 nM. For the same compound, the “CREB phosphorylation, dorsal striatum enriched culture” value ([1]; dorsal striatum "enriched" cultures, data not shown) was “similarly robust increases in CREB phosphorylation”, the “CREB phosphorylation in mCherry-transfected neurons” value ([1]; neurons transfected with mCherry alone) was “robust CRF-induced CREB phosphorylation” and the cAMP concentration ([2]; CRF 40 nM, time course of pCREB) was “failed to induce any measurable increase in cAMP concentration”. For the same compound, the “cAMP formation in the presence of MβCD” value ([2]; CRF 4 µM, 15 min, MβCD 10 mM) was “increased cAMP concentrations; also recorded: significant increase in cAMP formation”, the “cAMP formation in the presence of MβCD relative to isoproterenol” value ([2]; CRF 4 µM, 15 min, MβCD 10 mM) was “not to the levels seen with isoproterenol” and the cAMP accumulation ([2]; CRF, various concentrations up to and including 400 nM, 15 min) was “failed to increase cAMP accumulation; also recorded: failed to induce a significant accumulation of cAMP”. The “total CREB staining” value [3] was “had no effect on total CREB staining; also recorded: showed no change in total CREB staining”, the “binding affinity of CRF for CRFR1” value (CRFR1) was 5 to 10 nM and the CREB activation [4] was “activate CREB”. The “effect on incentive salience of a sucrose reward” value ([5]; CRF acting in NAc) was “enhances the incentive salience of a sucrose reward” and the “effect on rewarding effects of drugs of abuse” value [5] was “potentiate the rewarding effects of drugs of abuse”.

For cholera toxin [CTX], the “pCREB after toxin alone” value [1] was “transient increase in pCREB on its own”, the “pCREB signal after toxin alone” value [1] was 2809.7±104.5 and the “effect on CRF-induced CREB phosphorylation” value [6] was “blocked CRF-induced CREB phosphorylation; also recorded: complete block of CRF-induced CREB phosphorylation”. The “effect on 60 mM K+ depolarization-induced (MAPK-dependent) CREB phosphorylation” value [7] was “had no effect on MAPK-dependent CREB phosphorylation; also recorded: unaffected”.

For CC(C)NCC(O)c1ccc(O)c(O)c1 (stereo not shown) [isoproterenol], the cAMP concentration ([2]; ISO 10 µM, 15 min, positive control) is given as “significant increase in cAMP” and the CREB phosphorylation [8] is given as “leads to CREB phosphorylation”.

In the case of COC(=O)[C@@]1(O)C[C@H]2O[C@]1(C)n1c3ccccc3c3c4c(c5c6ccccc6n2c5c31)C(=O)NC4 [K252a], the “effect on CRF-induced CREB phosphorylation” value ([6]; inhibitor 100 nM, 30 min prior and concurrently, CRF 15 min) is listed as “failed to affect CRF-induced CREB phosphorylation” and the “effect on BDNF-induced NFAT activation” value [9] is listed as “Tyrosine Kinase (100 nM prevents BDNF-induced NFAT activation)”.

For Cc1cc(C(=O)N2CCN(c3cccc(Cl)c3)CC2)n(-c2ccccc2)n1 [XRP44X], the “effect on CRF-induced CREB phosphorylation” value [6, 14] is given as “failed to affect CRF-induced CREB phosphorylation” and the IC50 (Ras) is given as 10 to 20 nM.

In the case of O=S(=O)(NCCNC/C=C/c1ccc(Br)cc1)c1cccc2cnccc12 [H89], the “effect on CRF-induced CREB phosphorylation” value [6, 14] is given as “failed to block CRF-induced CREB phosphorylation”, the “effect on forskolin-induced CREB phosphorylation” value [10] is given as “attenuated forskolin (FSK)-induced CREB phosphorylation” and the IC50 (MAPKAP) is given as over 270 nM. The IC50 (PKA) was 135 nM, the IC50 (PKB) was […] and the IC50 (ROCK-II) was over 270 nM.

For O=C1Nc2ccc(I)cc2/C1=C/c1cc(Br)c(O)c(Br)c1 [GW5074], the “effect on CRF-induced CREB phosphorylation” value ([6]; inhibitor 1 µM, 30 min prior and concurrently, CRF 15 min, data not shown) is listed as “failed to affect CRF-induced CREB phosphorylation” and the “effect on ISO-induced pCREB in striatal neurons” value [11] is listed as “c-Raf (1 mM blocks ISO-induced pCREB in striatal neurons)”.

For O=C1OC2(c3ccccc31)c1ccc(O)c(O)c1Oc1c2ccc(O)c1O [gallein], the “effect on CRF-induced CREB phosphorylation” value ([6]; inhibitor 75 µM, 30 min prior and concurrently, CRF 15 min) is given as “CRF failed to induce CREB phosphorylation in the presence of this drug; also recorded: eliminated CRF-induced CREB phosphorylation”, the “effect on ISO-induced CREB phosphorylation” value [12] is given as “should not affect ISO-dependent CREB phosphorylation. Indeed, this was in fact the case; also recorded: had no effect on CREB phosphorylation” and the Rac1 activation inhibition (Rac1) is given as “inhibits PI3K and Rac1 activation”. The PI3K inhibition (PI3K) was “inhibits PI3K”.

For CC(=O)OCOC(=O)CN(CC(=O)OCOC(C)=O)c1ccccc1OCCOc1ccccc1N(CC(=O)OCOC(C)=O)CC(=O)OCOC(C)=O [BAPTA-AM], the “effect on CRF-induced CREB phosphorylation” value [6, 15] is given as “failed to block CRF-induced CREB phosphorylation; also recorded: not affected” and the “effect on mGluR1/5 mediated calcium transients” value [13] is given as “Calcium (5 mM prevents mGluR1/5 mediated calcium transienst)”.

In the case of CCN(CC)CCCCN1c2ccccc2Oc2ccc(Cl)cc21 [10-DEBC], the “effect on CRF-induced CREB phosphorylation” value [6, 15] is listed as “failed to affect CRF-induced CREB phosphorylation” and the IC50 (Akt/PKB) is listed as 2000 to 6000 nM.

Reference: article PMC3063246, “Corticotropin Releasing Factor-Induced CREB Activation in Striatal Neurons Occurs via a Novel Gβγ Signaling Pathway” (PLoS ONE, 2011)
